Reference: patent publication US8536207B2, “Method for treating a keratoconjunctival disorder” (Santen Pharmaceutical Co., Ltd., priority 2005, dated 2013)

Assays:
[1] = test system: corneal damage in rats in which the exorbital lacrimal gland was removed; experiment: Test for therapeutic effect on corneal damage using rats in which the exorbital lacrimal gland was removed; type: in vivo, male SD rats; conditions: for Improvement ratio (%) of corneal damage: fluorescein staining score vs saline control
Method: 1. Test for Therapeutic Effect on Corneal Damage Using Rats in which the Exorbital Lacrimal Gland was Removed
Using male SD rats, corneal disorder models were produced in accordance with the method of Fujihara et al. (Invest. Ophthalmol. Vis. Sci. 42 (1): 96-100 (2001)). After the production of the corneal disorder models, the improvement ratio of corneal damage was evaluated by a method (Journal of the eye 21 (1): 87-90 (2004)) modified from the method of Miyata et al. (Japanese Review of Clinical Ophthalmology 48 (2): 183-188 (1994)).
Male SD rats were systemically anesthetized by an administration of Nembutal. Subsequently, the exorbital lacrimal gland of each rat was removed and a corneal damage was induced over a period of 2 months.
A physiological saline solution containing ebselen (25 μM) was instilled into both eyes 6 times a day for 14 days (one group consisting of 8 animals).
A physiological saline solution containing edaravone (200 μM) was instilled into both eyes 6 times a day for 14 days (one group consisting of 8 animals).
A physiological saline solution containing α-lipoic acid (200 μM) was instilled into both eyes 6 times a day for 14 days (one group consisting of 8 animals).
In a control group, physiological saline was instilled into both eyes 6 times a day for 14 days (one group consisting of 8 animals)
Fourteen days after the start of instillation, the damaged parts of the cornea were stained with fluorescein. For each of the upper, middle and lower parts of the cornea, the degree of fluorescein staining was evaluated by scoring according to the criteria shown below and the improvement ratio of corneal damage was calculated from the mean value of the total scores for each of the above-mentioned parts.
1: Scattered staining (punctate staining being separated)
2: Moderate staining (a part of punctate staining being adjacent)
3: Heavy staining (punctate staining being barely separated)
Incidentally, intermediate values (at intervals of 0.5) were set between the respective scores.
By taking the mean value of the scores for the control group (physiological saline) as a standard (improvement ratio: 0%) and according to the calculation equation shown below, the improvement ratios for the ebselen (25 μM) administration group and the edaravone (200 μM) administration group and α-lipoic acid (200 μM) administration group were calculated, respectively, which are shown in Table 1. Incidentally, the mean value of the scores is a mean of those of 8 cases in each group. Improvement ratio (%)={(control)−(administered compound)}/damage degree×100 Damage degree=(control)−(normal eye)

[2] = test system: corneal damage in senescence-accelerated mouse model P10 (SAMP10); experiment: Pharmacological test using SAMP10 (corneal damage, fluorescein staining); type: in vivo; conditions: for Score of fluorescein staining: mean±standard error, maximum 9 points
Method: 2. Pharmacological Test Using SAMP10
Using senescence-accelerated mouse model P10 (hereinafter referred to as SAMP10), an effect of ebselen on a corneal damage was evaluated in accordance with the method of Hirai, Shibagaki et al. (JP-A-2006-104913). Incidentally, as a control animal, SAMR1 with normal senescence was used.
SAMP10 develops a corneal disorder with aging. Accordingly, a corneal damage of female SAMP10 at 16 weeks of age (before a change caused by aging is observed) was evaluated, and then, administration of an ebselen solution or its vehicle was started. At 8 weeks after the start of administration (at 24 weeks of age), the same evaluation was carried out again. In the same manner, a corneal damage of female SAMR1 at 16 weeks of age was evaluated, and thereafter, administration of the above-mentioned vehicle was started. Then, at 8 weeks after the start of administration (at 24 weeks of age), the same evaluation was carried out again.
Ebselen suspensions obtained by suspending it in a 1% (w/v) methyl cellulose aqueous solution (prepared by dissolving methyl cellulose in ultrapure water) at a concentration of 0.45 mg/mL and 4.5 mg/mL respectively were orally administered to female SAMP10 once a day at a dose of 6.67 μL per g of body weight of mouse. The both administration groups were determined to be a 3 mg/kg group and a 30 mg/kg group, respectively. The administration was carried out 5 days a week (Mon, Tue, Wed, Thu, Fri) over a period of 8 weeks. As a control, a 1% (w/v) methyl cellulose aqueous solution was orally administered to SAMP10 in the same manner at a dose of 6.67 μL per g of body weight of mouse. Further, to the control animal, female SAMR1, a 1% (w/v) methyl cellulose aqueous solution was orally administered in the same manner. Incidentally, the number of animals in each group of SAMP10 is 22 eyes (11 mice), and the number of SAMR1 is 16 eyes (8 mice).
The damaged parts of the cornea of SAMP10 and SAMR1 were stained with fluorescein immediately before and at 8 weeks after the start of administration. For each of the upper, middle and lower parts of the cornea, the degree of fluorescein staining was evaluated by scoring according to the evaluation criteria described in “1. Test for therapeutic effect on corneal damage using rat models in which the exorbital lacrimal gland was removed”, and the scoring of the degree of corneal damage (a maximum score of 9 points) was carried out by obtaining the total scores for each of the above-mentioned parts.
Incidentally, the scores in the table are expressed as mean±standard error in each group.

[3] = 200 μM in physiological saline instilled into both eyes 6 times a day for 14 days

Compound | Improvement ratio (%) of corneal damage [1, 3] | Improvement ratio (%) of corneal damage ([1]; 25 μM in physiological saline instilled into both eyes 6 times a day for 14 days) | Improvement ratio compared with edaravone and α-lipoic acid ([1]; ebselen 25 μM vs comparators 200 μM, instillation for 14 days) | Staining score compared with the vehicle administration group of SAMP10 ([2]; 3 mg/kg and 30 mg/kg groups, 24 weeks of age, Dunnett's test p < 0.05) | Score of fluorescein staining ([2]; SAMP10, 3 mg/kg group, 16 weeks of age (immediately before start of administration)) | Score of fluorescein staining ([2]; SAMP10, 3 mg/kg oral once a day, 5 days a week for 8 weeks, 24 weeks of age) | Score of fluorescein staining ([2]; SAMP10, 30 mg/kg group, 16 weeks of age (immediately before start of administration)) | Score of fluorescein staining ([2]; SAMP10, 30 mg/kg oral once a day, 5 days a week for 8 weeks, 24 weeks of age)
O=C(O)CCCCC1CCSS1 (stereo in doubt) [α-Lipoic acid, (3R)-1,2-dithiolane-3-pentanoic acid] | 30.8% |  |  |  |  |  |  | 
CC1=NN(c2ccccc2)C(=O)C1 [Edaravone, 3-methyl-1-phenyl-2-pyrazolin-5-one] | 36.9% |  |  |  |  |  |  | 
O=c1c2ccccc2[se]n1-c1ccccc1 [Ebselen, 2-phenyl-1,2-benzisoselenazol-3(2H)-one] |  | 76.5% | more than twice as high | significantly decreased | 2.61 ± 0.38 | 2.95 ± 0.45 | 2.45 ± 0.30 | 2.68 ± 0.33
